Measured values taken from ChEMBL document CHEMBL4840365, “BMS-813160: A Potent CCR2 and CCR5 Dual Antagonist Selected as a Clinical Candidate” (ACS Med Chem Lett, 2021).
One block for each compound: values may come before it.

What was measured:
[1] = biological target: C-C chemokine receptor type 2 (Homo sapiens, UniProt P41597); experiment: Antagonist activity at CCR2 in human whole blood assessed as inhibition of CCL2-induced CD11b upregulation; type: functional, tissue-based
[2] = Stability in human liver microsomes assessed as half life at 0.5 uM measured up to 45 mins in the presence of NADPH by LC-MS/MS analysis; type: ADME, Microsome
[3] = Stability in rat liver microsomes assessed as half life at 0.5 uM measured up to 45 mins in the presence of NADPH by LC-MS/MS analysis; type: ADME, Microsome
[4] = AUC (0 to 24 hrs) in cynomolgus monkey at 1 mg/kg, po; type: ADME, organism-based, Macaca fascicularis; set-up: time < 24 hr, route oral, dose 1 mg/kg; settings: in vivo
[5] = AUC (0 to 24 hrs) in rat at 10 mg/kg, po; type: ADME, organism-based; set-up: time < 24 hr, route oral, dose 10 mg/kg; settings: in vivo
[6] = biological target: hERG (KCNH2) (Homo sapiens, UniProt Q12809); experiment: Inhibition of human ERG expressed in HEK293 cells at 30 uM by patch-clamp assay relative to control; type: cell-based; settings: HEK293 cells that express hERG
[7] = biological target: T1, C-C chemokine receptor type 1 (Homo sapiens, UniProt P32246); experiment: Displacement of [125I]MIP-1alpha from CCR1 in human THP-1 cells incubated for 12 hrs by radioligand competition assay; type: cell-based
T1 sequence (P32246 whole entry): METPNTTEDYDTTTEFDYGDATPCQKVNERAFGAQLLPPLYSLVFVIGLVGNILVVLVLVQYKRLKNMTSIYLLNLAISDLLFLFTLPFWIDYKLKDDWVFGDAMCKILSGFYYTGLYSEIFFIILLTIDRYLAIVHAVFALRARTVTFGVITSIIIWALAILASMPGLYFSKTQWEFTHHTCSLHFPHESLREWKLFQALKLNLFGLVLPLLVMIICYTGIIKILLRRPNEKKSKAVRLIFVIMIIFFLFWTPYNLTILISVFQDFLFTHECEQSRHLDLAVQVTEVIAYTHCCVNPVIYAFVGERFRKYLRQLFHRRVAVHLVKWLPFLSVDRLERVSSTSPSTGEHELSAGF

[8] = Clearance in rat at 2 mg/kg, iv; type: ADME, organism-based; settings: in vivo
[9] = Permeability of the compound at pH 5.5 by PAMPA; type: ADME; settings: read-out: permeability
[10] = Protein binding in mouse plasma assessed as unbound fraction at 1 uM by equilibrium dialysis method; type: ADME, cell-free
[11] = Oral bioavailability in dog at 1 mg/kg; type: ADME, organism-based, Canis lupus familiaris; settings: in vivo
[12] = biological target: T2, C-C chemokine receptor type 4 (Homo sapiens, UniProt P51679); experiment: Displacement of [125I]chemokine from CCR4 (unknown origin) by gamma counter method
T2 sequence (P51679 whole entry): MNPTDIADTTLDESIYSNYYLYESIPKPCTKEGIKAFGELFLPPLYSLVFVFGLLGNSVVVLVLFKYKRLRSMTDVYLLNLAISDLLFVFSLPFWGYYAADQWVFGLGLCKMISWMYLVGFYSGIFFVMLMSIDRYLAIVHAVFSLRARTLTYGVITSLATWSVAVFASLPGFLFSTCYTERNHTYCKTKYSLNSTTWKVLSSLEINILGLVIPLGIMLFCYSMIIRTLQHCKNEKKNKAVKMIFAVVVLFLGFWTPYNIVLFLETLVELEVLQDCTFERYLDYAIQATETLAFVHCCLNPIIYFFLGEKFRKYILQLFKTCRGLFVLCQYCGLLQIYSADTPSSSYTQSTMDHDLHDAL

[13] = system: Mus musculus; experiment: Antiinflammatory activity against human CCR2 knock-in thioglycollate-induced peritonitis C57BL/6 mouse model assessed as reduction in inflammatory monocyte and macrophage infiltration in peritoneum administered orally twice daily for 2 days with first dose 1 hr prior to thioglycollate challenge; type: functional, organism-based; settings: dose 10-160 mg/kg, time 2.0 day
[14] = Oral bioavailability in mouse at 10 mg/kg; type: ADME, organism-based; settings: in vivo
[15] = Oral bioavailability in cynomolgus monkey at 1 mg/kg; type: ADME, organism-based, Macaca fascicularis; settings: in vivo
[16] = Oral bioavailability in rat at 10 mg/kg; type: ADME, organism-based; settings: in vivo
[17] = Stability in mouse liver microsomes assessed as half life at 0.5 uM measured up to 45 mins in the presence of NADPH by LC-MS/MS analysis; type: ADME, Microsome
[18] = biological target: T3, C-X-C chemokine receptor type 2 (Homo sapiens, UniProt P25025); experiment: Displacement of [125I]-interleukin-8 from human CXCR2 expressed in human pEAK rapid cells incubated for 90 mins by microscintillation counting analysis; type: cell-based
T3 sequence (P25025 whole entry): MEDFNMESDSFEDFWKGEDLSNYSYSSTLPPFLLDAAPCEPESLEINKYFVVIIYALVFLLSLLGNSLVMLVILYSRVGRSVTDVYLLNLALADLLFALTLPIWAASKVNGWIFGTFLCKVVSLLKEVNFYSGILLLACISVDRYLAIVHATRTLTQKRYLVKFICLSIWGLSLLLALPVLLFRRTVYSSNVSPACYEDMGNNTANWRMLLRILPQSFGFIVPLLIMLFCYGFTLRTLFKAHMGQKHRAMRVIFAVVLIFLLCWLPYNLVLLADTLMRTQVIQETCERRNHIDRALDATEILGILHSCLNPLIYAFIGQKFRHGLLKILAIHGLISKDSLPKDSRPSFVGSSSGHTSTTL

[19] = AUC (0 to 24 hrs) in dog at 1 mg/kg, po; type: ADME, organism-based, Canis lupus familiaris; set-up: time < 24 hr, route oral, dose 1 mg/kg; settings: in vivo
[20] = Clearance in dog at 1 mg/kg, iv; type: ADME, organism-based, Canis lupus familiaris; settings: in vivo
[21] = organism: Homo sapiens; experiment: Selectivity ratio of IC50 for displacement of [125I]-CCL2 from CCR2 in human PBMC cells to IC50 for displacement of [125I]-MIP-1beta from CCR5 in human peripheral T cells; type: cell-based
[22] = Protein binding in human plasma assessed as unbound fraction at 1 uM by equilibrium dialysis method; type: ADME, cell-free
[23] = AUC (0 to 24 hrs) in mouse at 10 mg/kg, po; type: ADME, organism-based; set-up: time < 24 hr, route oral, dose 10 mg/kg; settings: in vivo
[24] = Clearance in cynomolgus monkey at 1 mg/kg, iv; type: ADME, organism-based, Macaca fascicularis; settings: in vivo
[25] = biological target: C-C chemokine receptor type 2 (Mus musculus, UniProt P51683); experiment: Displacement of [125I]-CCL2 from mouse CCR2
[26] = Clearance in mouse at 2 mg/kg, iv; type: ADME, organism-based; settings: in vivo
[27] = Protein binding in rat plasma assessed as unbound fraction at 1 uM by equilibrium dialysis method; type: ADME, cell-free

Sequence of C-C chemokine receptor type 2 (Mus musculus, UniProt P51683) (P51683 whole entry): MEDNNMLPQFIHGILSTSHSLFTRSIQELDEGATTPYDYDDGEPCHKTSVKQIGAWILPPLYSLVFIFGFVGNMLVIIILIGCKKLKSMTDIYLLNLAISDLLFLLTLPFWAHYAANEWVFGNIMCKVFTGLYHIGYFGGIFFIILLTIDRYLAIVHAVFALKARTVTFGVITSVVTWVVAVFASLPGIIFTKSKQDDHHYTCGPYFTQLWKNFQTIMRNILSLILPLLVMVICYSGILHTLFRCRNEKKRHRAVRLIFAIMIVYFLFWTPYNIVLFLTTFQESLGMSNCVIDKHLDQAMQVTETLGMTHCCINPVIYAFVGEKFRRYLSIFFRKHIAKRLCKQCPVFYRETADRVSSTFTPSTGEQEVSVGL
Sequence of hERG (KCNH2) (Q12809 whole entry): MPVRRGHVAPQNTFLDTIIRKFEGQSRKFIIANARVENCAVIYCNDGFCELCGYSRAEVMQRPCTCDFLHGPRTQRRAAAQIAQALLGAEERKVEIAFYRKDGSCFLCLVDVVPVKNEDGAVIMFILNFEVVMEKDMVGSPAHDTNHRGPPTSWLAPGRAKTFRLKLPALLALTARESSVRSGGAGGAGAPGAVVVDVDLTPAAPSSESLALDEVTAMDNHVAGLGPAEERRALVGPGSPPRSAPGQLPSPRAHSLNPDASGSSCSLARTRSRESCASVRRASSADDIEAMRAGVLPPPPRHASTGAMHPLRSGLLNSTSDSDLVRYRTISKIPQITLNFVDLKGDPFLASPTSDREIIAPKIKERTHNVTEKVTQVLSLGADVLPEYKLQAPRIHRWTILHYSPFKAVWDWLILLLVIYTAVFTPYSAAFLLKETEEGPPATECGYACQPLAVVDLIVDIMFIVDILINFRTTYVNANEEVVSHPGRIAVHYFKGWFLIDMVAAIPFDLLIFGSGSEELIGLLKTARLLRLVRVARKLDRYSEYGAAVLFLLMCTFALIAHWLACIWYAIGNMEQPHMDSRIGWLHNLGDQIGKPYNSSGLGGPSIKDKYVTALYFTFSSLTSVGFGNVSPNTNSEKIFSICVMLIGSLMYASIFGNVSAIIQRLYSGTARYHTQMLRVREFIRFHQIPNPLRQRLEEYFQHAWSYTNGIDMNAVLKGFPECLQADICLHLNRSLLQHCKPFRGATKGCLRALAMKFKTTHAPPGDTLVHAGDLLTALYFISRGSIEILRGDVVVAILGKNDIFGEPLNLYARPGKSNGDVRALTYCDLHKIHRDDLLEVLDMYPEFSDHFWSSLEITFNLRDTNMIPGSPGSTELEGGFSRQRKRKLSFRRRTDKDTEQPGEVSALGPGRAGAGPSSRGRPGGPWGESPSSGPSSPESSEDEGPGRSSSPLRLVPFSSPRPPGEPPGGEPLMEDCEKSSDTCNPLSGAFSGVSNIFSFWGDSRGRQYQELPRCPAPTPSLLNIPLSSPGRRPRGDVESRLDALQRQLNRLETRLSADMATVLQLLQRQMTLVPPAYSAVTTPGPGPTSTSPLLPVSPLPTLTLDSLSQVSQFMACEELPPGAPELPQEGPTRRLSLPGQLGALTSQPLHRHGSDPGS
Sequence of C-C chemokine receptor type 2 (Homo sapiens, UniProt P41597) (P41597 whole entry): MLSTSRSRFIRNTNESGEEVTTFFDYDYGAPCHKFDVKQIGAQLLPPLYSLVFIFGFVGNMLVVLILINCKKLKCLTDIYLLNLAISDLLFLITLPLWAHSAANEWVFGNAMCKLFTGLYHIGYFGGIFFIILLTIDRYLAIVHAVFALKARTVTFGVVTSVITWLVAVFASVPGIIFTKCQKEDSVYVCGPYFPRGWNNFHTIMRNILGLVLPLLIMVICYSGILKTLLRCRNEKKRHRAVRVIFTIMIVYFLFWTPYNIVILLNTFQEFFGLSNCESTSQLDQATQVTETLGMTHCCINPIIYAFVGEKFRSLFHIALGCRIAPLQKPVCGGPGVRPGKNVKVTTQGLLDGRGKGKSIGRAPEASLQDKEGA

IC50 [1]: 0.0026 µM
SMILES: CC(=O)N[C@@H]1C[C@H](NC(C)(C)C)CC[C@@H]1N1CC[C@H](Nc2ncnc3ccc(C(F)(F)F)cc23)C1=O

half-life at 0.5 µM [2]: 2.43 h | half-life at 0.5 µM [3]: > 3.33 h | AUC(0-t) at 24 h [4]: 1.3 µM·h | AUC(0-t) at 24 h [5]: 6.5 µM·h | IC50 [7]: > 25 µM | clearance [8]: 50 mL/min/kg | Papp [9]: 1.9 ×10⁻⁶ cm/s | fraction unbound at 1 µM [10]: 0.58 | bioavailability [11]: 61% | IC50 [12]: > 40 µM | bioavailability [14]: 100% | bioavailability [15]: 63% | bioavailability [16]: 94% | half-life at 0.5 µM [17]: > 3.33 h | IC50 [18]: > 40 µM | AUC(0-t) at 24 h [19]: 1.23 µM·h | clearance [20]: 17 mL/min/kg | fraction unbound at 1 µM [22]: 0.71 | AUC(0-t) at 24 h [23]: 5.41 µM·h | clearance [24]: 16 mL/min/kg | IC50 [25]: 0.045 µM | clearance [26]: 85 mL/min/kg | fraction unbound at 1 µM [27]: 0.69
SMILES: CC(=O)N[C@@H]1C[C@H](NC(C)(C)C)CC[C@@H]1N1CC[C@H](Nc2ncnc3cc(C(C)(C)C)nn23)C1=O [BMS-813160]
inhibition at 30 µM [6]: 9% | Activity [13]: Dose-Dependent Effect | Ratio IC50 [21]: 2
